Target: T1, Full length wild-type cereblon CRBN (Homo sapiens, UniProt Q96SW2)
T1 construct: Full length wild-type cereblon CRBN (80.0 nM, 10 μL) was incubated in assay buffer
Assay: Fluorescence polarization (FP) assay indicating cereblon binding
Conditions: Table 3B; read-out: rFP IC50
Method: Compound activity was monitored in a fluorescence polarization (FP) homogeneous assay using 1-[5-({2-[2-(2-{[2-(2,6-dioxopiperidin-3-yl)-1,3-dioxo-2,3-dihydro-1H-isoindol-4-yl]oxy}acetamido)ethoxy]ethyl}carbamoyl)pentyl]-3,3-dimethyl-2-[(1E,3E)-5-[(2E)-1,3,3-trimethyl-5-sulfo-2,3-dihydro-1H-indol-2-ylidene]penta-1,3-dien-1-yl]-3H-indol-1-ium-5-sulfonate as a fluorescent probe. Unless otherwise stated, all reagents were purchased from Sigma Aldrich. Enzymatic reactions were conducted in Perkin-Elmer Black 384 well ProxiPlate Plus (catalogue no. 6008269) in 10 μL total volume. Full length wild-type cereblon CRBN (80.0 nM, 10 μL) was incubated in assay buffer containing 20 mM HEPES (pH 8.0), […], 0.5 mM TCEP and 0.05% Tween 20 in the presence or absence of compound (300 nL). Inhibitors were stored as 10 mM DMSO stocks in an inert environment (low humidity, dark, low oxygen, room temperature) using the Storage Pod System. Compounds and DMSO were dispensed using the Echo E5XX (Labcyte Inc. USA) to give concentrations from 300 to 0.937 or 3000 to 9.3 nM in a 12 data point curve. […] Following incubation at room temperature for 30 min, the assay was initiated by dispensing the probe to a final concentration of 5 nM (2.5 nL of a 20 μM stock) using the Echo E5XX. FP was measured after a period of 12 hours using a Pherastar plate reader (BMG Labtech, Germany) exciting at 590 nm and measuring the amount of parallel and perpendicular light at 675 nm. The FP signal was subsequently normalized to the no-compound control (i.e., DMSO). Analysis and IC50 values were derived using Dotmatics (Dotmatics UK) software.

T1 sequence (Q96SW2 whole entry): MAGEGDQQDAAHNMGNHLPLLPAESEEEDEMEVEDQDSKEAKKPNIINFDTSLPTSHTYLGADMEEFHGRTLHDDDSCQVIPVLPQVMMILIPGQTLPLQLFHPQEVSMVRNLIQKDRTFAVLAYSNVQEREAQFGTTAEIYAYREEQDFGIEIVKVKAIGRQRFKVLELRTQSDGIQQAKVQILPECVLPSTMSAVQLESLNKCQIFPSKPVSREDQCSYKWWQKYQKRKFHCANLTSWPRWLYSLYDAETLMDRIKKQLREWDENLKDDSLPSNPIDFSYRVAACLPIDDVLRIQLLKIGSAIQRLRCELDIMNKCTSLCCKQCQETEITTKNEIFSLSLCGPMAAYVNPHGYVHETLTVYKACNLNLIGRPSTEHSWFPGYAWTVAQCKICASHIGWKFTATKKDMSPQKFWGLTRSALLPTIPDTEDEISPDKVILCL

| Compound | IC50 |
| --- | --- |
| Cc1ccc(NC(=O)OCc2cc(Br)c3c(c2)C(=O)N(C2CCC(=O)NC2=O)C3)cc1Cl (centres unmarked) [Compound 501] | > 1900 nM |
| Cc1ccc(NC(=O)OCc2cc(C#N)c3c(c2)C(=O)N(C2CCC(=O)NC2=O)C3)cc1Cl (centres unmarked) [Compound 502] | > 1900 nM |
| Cc1ccc(NC(=O)OCc2cc(F)c3c(c2)C(=O)N(C2CCC(=O)NC2=O)C3)cc1Cl (centres unmarked) [Compound 503] | > 1900 nM |
| Cc1ccc(NC(=O)OCc2cc(Cl)c3c(c2)C(=O)N(C2CCC(=O)NC2=O)C3)cc1Cl (centres unmarked) [Compound 504] | > 1900 nM |
| O=C1CCC(N2Cc3c(F)cc(COC(=O)Nc4cc(F)cc(OC(F)F)c4)cc3C2=O)C(=O)N1 (centres unmarked) [Compound 506] | > 1900 nM |
| O=C1CCC(N2Cc3c(F)cc(COC(=O)Nc4ccc(-c5ccccc5)nc4)cc3C2=O)C(=O)N1 (centres unmarked) [Compound 508] | > 1900 nM |
| O=C1CCC(N2Cc3c(F)cc(COC(=O)Nc4ccc(-c5ccccn5)cc4)cc3C2=O)C(=O)N1 (centres unmarked) [Compound 511] | ≤ 600 nM |
| O=C1CCC(N2Cc3c(F)cc(COC(=O)Nc4cc(F)cc(OC(F)(F)F)c4)cc3C2=O)C(=O)N1 (centres unmarked) [Compound 512] | > 1900 nM |
| CC1(c2ccc(NC(=O)OCc3cc(F)c4c(c3)C(=O)N(C3CCC(=O)NC3=O)C4)cc2)CC1 (centres unmarked) [Compound 513] | > 1900 nM |
| O=C1CCC(N2Cc3c(F)cc(COC(=O)Nc4cccc(OC(F)(F)F)c4)cc3C2=O)C(=O)N1 (centres unmarked) [Compound 515] | > 1900 nM |

Second part, the compound after the results:

| IC50 | Compound |
| --- | --- |
| ≤ 600 nM | Cc1ccccc1-c1ccc(NC(=O)OCc2cc(F)c3c(c2)C(=O)N(C2CCC(=O)NC2=O)C3)cn1 (centres unmarked) [Compound 519] |
| > 1900 nM | O=C1CCC(N2Cc3c(F)cc(COC(=O)Nc4cc(-c5ccccc5)ccn4)cc3C2=O)C(=O)N1 (centres unmarked) [Compound 524] |
| > 1900 nM | CC(C)(C)c1cccc(NC(=O)OCc2cc(F)c3c(c2)C(=O)N(C2CCC(=O)NC2=O)C3)c1 (centres unmarked) [Compound 525] |
| > 1900 nM | O=C1CCC(N2Cc3c(F)cc(COC(=O)Nc4cc(Cl)cc(Cl)c4)cc3C2=O)C(=O)N1 (centres unmarked) [Compound 528] |
| > 1900 nM | Cc1cc(C)cc(NC(=O)OCc2cc(F)c3c(c2)C(=O)N(C2CCC(=O)NC2=O)C3)c1 (centres unmarked) [Compound 531] |
| > 1900 nM | O=C1CCC(N2Cc3c(F)cc(COC(=O)Nc4cc(Cl)cc(OC(F)F)c4)cc3C2=O)C(=O)N1 (centres unmarked) [Compound 534] |
| > 1900 nM | Cc1ccc(NC(=O)OCc2cc(F)c3c(c2)C(=O)N(C2CCC(=O)NC2=O)C3)cc1OC(F)F (centres unmarked) [Compound 535] |
| ≤ 600 nM | COc1cc(COC(=O)Nc2ccc3c(c2)OCC3(C)C)cc2c1CN(C1CCC(=O)NC1=O)C2=O (centres unmarked) [Compound 537] |
| ≤ 600 nM | COc1cc(COC(=O)Nc2ccc(N3CCCCC3C)nc2)cc2c1CN(C1CCC(=O)NC1=O)C2=O (centres unmarked) [Compound 538] |
| ≤ 600 nM | COc1cc(COC(=O)Nc2ccc(C3(C)CC3)cc2)cc2c1CN(C1CCC(=O)NC1=O)C2=O (centres unmarked) [Compound 540] |
| ≤ 600 nM | COc1cc(COC(=O)Nc2ccc(C(C)(C)C)nc2)cc2c1CN(C1CCC(=O)NC1=O)C2=O (centres unmarked) [Compound 544] |
| ≤ 600 nM | COc1cc(COC(=O)Nc2cc(C)cc(C)c2)cc2c1CN(C1CCC(=O)NC1=O)C2=O (centres unmarked) [Compound 552] |
| ≤ 600 nM | COc1cc(COC(=O)Nc2cccc(OC(F)F)c2)cc2c1CN(C1CCC(=O)NC1=O)C2=O (centres unmarked) [Compound 553] |
| ≤ 600 nM | COc1cc(COC(=O)Nc2cccc(C(C)(C)C)c2)cc2c1CN(C1CCC(=O)NC1=O)C2=O (centres unmarked) [Compound 554] |
| ≤ 600 nM | COc1cc(COC(=O)Nc2cc(-c3ccccc3)ccn2)cc2c1CN(C1CCC(=O)NC1=O)C2=O (centres unmarked) [Compound 556] |
| ≤ 600 nM | COc1cc(COC(=O)Nc2cccc(OC3CC3)c2)cc2c1CN(C1CCC(=O)NC1=O)C2=O (centres unmarked) [Compound 558] |
| ≤ 600 nM | COc1cc(COC(=O)Nc2cnc(-c3ccccc3)c(C)c2)cc2c1CN(C1CCC(=O)NC1=O)C2=O (centres unmarked) [Compound 559] |
| ≤ 600 nM | COc1cc(COC(=O)Nc2ccc(-c3ccccc3C)nc2)cc2c1CN(C1CCC(=O)NC1=O)C2=O (centres unmarked) [Compound 560] |
| > 1900 nM | Cc1ccc(NC(=O)OCc2ccc3c(c2F)C(=O)N(C2CCC(=O)NC2=O)C3)cc1Cl (centres unmarked) [Compound 571] |

Same assay, conditions: bound stated; read-out: IC50 value

| Compound | IC50 |
| --- | --- |
| COc1ccccc1CNC(=O)OCc1ccc2c(c1)C(=O)N(C1CCC(=O)NC1=O)C2 (centres unmarked) [Compound 297] | < 1100 nM |
| CC1COc2cc(NC(=O)OCc3ccc4c(c3)C(=O)N(C3CCC(=O)NC3=O)C4)ccc21 (centres unmarked) [Compound 303] | < 1100 nM |

Same assay, conditions: bounds stated; read-out: IC50 value

| Compound | IC50 |
| --- | --- |
| COc1ccc(NC(=O)NCc2ccc3c(c2)C(=O)N(C2CCC(=O)NC2=O)C3)cc1 (centres unmarked) [Compound 5] | < 600 nM |
| COc1ccccc1NC(=O)NCc1ccc2c(c1)C(=O)N(C1CCC(=O)NC1=O)C2 (centres unmarked) [Compound 7] | < 600 nM |
| CC(C)(C)c1ccccc1NC(=O)NCc1ccc2c(c1)C(=O)N(C1CCC(=O)NC1=O)C2 (centres unmarked) [Compound 11] | < 600 nM |
| CCOc1ccc(NC(=O)NCc2ccc3c(c2)C(=O)N(C2CCC(=O)NC2=O)C3)cc1 (centres unmarked) [Compound 16] | < 600 nM |
| COc1ccc(C)cc1NC(=O)NCc1ccc2c(c1)C(=O)N(C1CCC(=O)NC1=O)C2 (centres unmarked) [Compound 17] | < 600 nM |
| CCc1ccc(NC(=O)NCc2ccc3c(c2)C(=O)N(C2CCC(=O)NC2=O)C3)cc1 (centres unmarked) [Compound 18] | < 600 nM |
| Cc1c(Cl)cccc1NC(=O)NCc1ccc2c(c1)C(=O)N(C1CCC(=O)NC1=O)C2 (centres unmarked) [Compound 19] | < 600 nM |
| Cc1ccc(NC(=O)NCc2ccc3c(c2)C(=O)N(C2CCC(=O)NC2=O)C3)cc1 (centres unmarked) [Compound 21] | < 600 nM |
| COc1ccc(NC(=O)NCc2ccc3c(c2)C(=O)N(C2CCC(=O)NC2=O)C3)c(C)c1 (centres unmarked) [Compound 23] | < 600 nM |
| O=C1CCC(N2Cc3ccc(CNC(=O)NCC4CC4)cc3C2=O)C(=O)N1 (centres unmarked) [Compound 26] | < 600 nM |
| O=C1CCC(N2Cc3ccc(CNC(=O)NCCc4ccccc4)cc3C2=O)C(=O)N1 (centres unmarked) [Compound 27] | < 600 nM |
| CCc1ccccc1NC(=O)NCc1ccc2c(c1)C(=O)N(C1CCC(=O)NC1=O)C2 (centres unmarked) [Compound 36] | < 600 nM |
| Cc1ccccc1NC(=O)NCc1ccc2c(c1)C(=O)N(C1CCC(=O)NC1=O)C2 (centres unmarked) [Compound 37] | < 600 nM |
| O=C1CCC(N2Cc3ccc(CNC(=O)Nc4cc(Cl)cc(Cl)c4)cc3C2=O)C(=O)N1 (centres unmarked) [Compound 38] | < 600 nM |
| O=C1CCC(N2Cc3ccc(CNC(=O)Nc4ccc(F)c(F)c4)cc3C2=O)C(=O)N1 (centres unmarked) [Compound 39] | < 600 nM |
| O=C1CCC(N2Cc3ccc(CNC(=O)NC4CCCc5ccccc54)cc3C2=O)C(=O)N1 (centres unmarked) [Compound 40] | < 600 nM |

| Compound | IC50 |
| --- | --- |
| O=C1CCC(N2Cc3ccc(CNC(=O)Nc4ccc(C(F)(F)F)cc4)cc3C2=O)C(=O)N1 (centres unmarked) [Compound 41] | < 600 nM |
| O=C1CCC(N2Cc3ccc(CNC(=O)Nc4ccc(F)c(Cl)c4)cc3C2=O)C(=O)N1 (centres unmarked) [Compound 42] | < 600 nM |
| Cc1cccc(NC(=O)NCc2ccc3c(c2)C(=O)N(C2CCC(=O)NC2=O)C3)c1 (centres unmarked) [Compound 43] | < 600 nM |
| Cc1cccc(NC(=O)NCc2ccc3c(c2)C(=O)N(C2CCC(=O)NC2=O)C3)c1C (centres unmarked) [Compound 44] | < 600 nM |
| O=C1CCC(N2Cc3ccc(CNC(=O)Nc4ccc(Cl)cc4Cl)cc3C2=O)C(=O)N1 (centres unmarked) [Compound 45] | < 600 nM |
| O=C1CCC(N2Cc3ccc(CNC(=O)Nc4ccccc4F)cc3C2=O)C(=O)N1 (centres unmarked) [Compound 48] | < 600 nM |
| O=C1CCC(N2Cc3ccc(CNC(=O)Nc4ccccc4C(F)(F)F)cc3C2=O)C(=O)N1 (centres unmarked) [Compound 49] | < 600 nM |
| O=C1CCC(N2Cc3ccc(CNC(=O)Nc4cccc(Cl)c4Cl)cc3C2=O)C(=O)N1 (centres unmarked) [Compound 50] | < 600 nM |
| COc1ccc(CNC(=O)NCc2ccc3c(c2)C(=O)N(C2CCC(=O)NC2=O)C3)cc1 (centres unmarked) [Compound 52] | < 600 nM |
| COc1cccc(CNC(=O)NCc2ccc3c(c2)C(=O)N(C2CCC(=O)NC2=O)C3)c1 (centres unmarked) [Compound 53] | < 600 nM |
| C[C@@H](NC(=O)NCc1ccc2c(c1)C(=O)N(C1CCC(=O)NC1=O)C2)c1ccccc1 (some centres unmarked) [Compound 54] | < 600 nM |
| CC(C)(C)c1ccc(NC(=O)NCc2ccc3c(c2)C(=O)N(C2CCC(=O)NC2=O)C3)cc1 (centres unmarked) [Compound 56] | < 600 nM |
| CC(C)c1ccc(NC(=O)NCc2ccc3c(c2)C(=O)N(C2CCC(=O)NC2=O)C3)cc1 (centres unmarked) [Compound 57] | < 600 nM |
| O=C1CCC(N2Cc3ccc(CNC(=O)NCC4CCCCC4)cc3C2=O)C(=O)N1 (centres unmarked) [Compound 58] | < 600 nM |
| Cc1ccc(F)cc1NC(=O)NCc1ccc2c(c1)C(=O)N(C1CCC(=O)NC1=O)C2 (centres unmarked) [Compound 62] | < 600 nM |

— patent US20240261274A1, “TREATMENT OF MYC-DRIVEN CANCERS WITH GSPT1 DEGRADERS” (MONTE ROSA THERAPEUTICS, INC., priority 2021, published 2024)
